Where two headings read alike, the source gives them in different places. Marks after values point to notes of the source that are not given here.
Legend:
[1] = test system: coronary blood flow in experimental myocardial ischemia dogs; assay: Coronary blood flow in experimental myocardial ischemia dogs; type: in vivo, dog; conditions: 5 mg/kg
Description: (§1) Test dogs were divided into the following 8 groups, 6 dogs per group: (1) blank control group, 3 ml/kg physiological saline; (2) 5 mg/kg Diltiazem group; (3) 200 mg/kg “Di'ao Xinxuekang” group; (4) 200 mg/kg ginseng root total ginsenosides (briefly referred as root total ginsenosides) group; (5) 200 mg/kg ginseng stem/leave total ginsenosides (briefly referred as stem/leave total ginsenosides) group; (6) 25 mg/kg total secondary ginsenosides group; (7) 50 mg/kg total secondary ginsenosides group; and (8) 100 mg/kg total secondary ginsenosides group. All test drugs were formulated with distilled water to have the same volume (3 ml/kg), and were administered through duodenum.
(§2) Animals each was anesthetized with sodium pentobarbital (30 mg/kg), operated to form pericardium bed; left circumflex artery was separated, an electromagnetic flow meter probe was placed therein to measure cardiac coronary blood flow (CCBF); middle section of anterior descending coronary artery was separated, braided for ligation to create an experimental acute myocardial ischemia model; a multipoint fixed epicardial lead was sutured and connected with a multichannel electrophysiolograph to record epicardial electrogram. Coronary artery was ligated for 15 minutes, and recorded as control value before administration of drug, test drug or physiological saline was administered via duodenum, 30 mapping point epicardial electrograms were recorded at 15, 30, 45, 60, 90, 120, 180 minutes after the administration of drug, and the degree of myocardial ischemia (Σ-ST, total increase of mv number in S-T section) and the range of myocardial ischemia (N-ST, total increase of point numberin S-T section) were calculated. Blood samples were taken at orifice of coronary sinus vein by cannulation via external jugular vein before ischemia, at 15 minutes after ischemia (before administration of drug), and at 0, 30, 60, 90, 120, 180 minutes after administration of drug, the contents of oxygen in the coronary venous blood were measured by oxyhemograph; cannulation was made to common carotid artery, where the contents of […] in the arterial blood were measured, which together with coronary blood flow were used to calculate myocardial oxygen consumption (MOC). Blood samples were taken at the abovementioned time points to measure the levels of serum creatine kinase (CK) and lactic acid dehydrogenase (LDH); and the levels of blood plasma endothelin (ET), thromboxane B2 (TXB2) and 6-keto-prostaglandin F1a (6-Keto-PGF1a) were measured by an automatic γ-counter radioimmunologically.

[2] = test system: acute myocardial ischemia induced by coronary artery ligation in anesthetized dogs; assay: Myocardial ischemia induced by coronary artery ligation in anesthetized dogs, epicardial electrogram mapping; type: in vivo, dog; conditions: 5 mg/kg
Description: as §1, §2
(§3) The test results were statistically analyzed, and t-test was used to determine the significance.

[3] = test system: rat arrhythmia induced by BaCl2; assay: Arrhythmia induced by BaCl2 in rats; type: in vivo; conditions: 50 mg/kg
Description: 70 SD rats, including half male and half female, were randomly divided into: control group, Diltiazem group, 200 mg/kg Di'ao Xinxuekang group, 200 mg/kg the root total ginsenosides group, and 200, 100, 50, 25 mg/kg dosage groups of the total secondary ginsenosides. On the 7th day of administration of drug, 30 minutes after the administration of drug, each of the rats was anesthetized by intraperitoneal injection of 300 mg/kg 10% chloral hydrate, fixed in supine position on rat bench. The chart speed was set at 50 mm/s, and the sensitivity was set at 20 mm/mv. After printing under standard voltage, normal II Lead electrocardiogram was recorded for a certain period, then the rat was administered with 4 mg/kg barium chloride via sublingual vein and observed immediately to record the electrocardiograms at 1, 5, 10, 15, 20, 25, 30 minutes after the administration of barium chloride. The heart rate was calculated and compared with the reference value before administration, and the onset time and time period of arrhythmia were compared as well. The incidence rates of ventricular premature beat (VP), ventricular tachycardia (VT) and ventricular fibrillation (VF) were calculated.

[4] = test system: acute myocardial infarction in dogs; assay: Range of acute myocardial infarction in dogs, N-BT staining; type: in vivo, dog; conditions: 5 mg/kg
Description: as §1
Recording was completed at 180 minutes after administration of drug, heart was taken out immediately, cardiac ventricle was cross-sectioned parallel to coronary sulcus under heart ligature to form 5 slices, which were placed in N-BT staining solution and stained at room temperature for 15 minutes. Infarction zone (N-BT non-staining zone) and non-infarction zone (N-BT staining zone) at both sides of each slice of cardiac muscle were measured by using a multimedia color pathologic image analysis system to calculate the area of each slice of cardiac muscle, the total area of the cardiac ventricle and the total area of the infarction zones. The percentages of infarction zones based on the cardiac ventricle and on the whole heart were calculated.
as §3

[5] = test system: thrombosis in experimental rat jugular arteriovenous bypass; assay: Thrombosis in rat jugular arteriovenous bypass; type: in vivo; conditions: for inhibition at 50 mg/kg: Rattus norvegicus
Description: 70 Rats, half male and half female, weighting 250-300 g, were randomly divided into 7 groups, 10 rats per group, and fed for one week in advance. The said 7 groups included high, middle and low dosage groups of the total secondary ginsenosides (200, 100 and 50 mg/kg), and control groups: Diltiazem group (50 mg/kg), Di'ao Xinxuekang group (200 mg/kg), root total ginsenosides group (200 mg/kg) and blank control group (water). administered All the drugs and controls were administered through intragastrical perfusion for 7 days.
Measurement of the rate for inhibition of thrombosis: on the 7th day after administration of drug, 30 minutes after the administration, each of rats was anesthetized with sodium pentobarbital, the left external jugular vein and right common carotid artery were separated, three segments of polyethylene tubes were used to form cannula, and then 5 cm weighed 4-suture was placed in the middle segment. These polyethylene tubes were filled with heparin-physiological saline (50 U/ml). When one end of the tube was inserted into the external jugular vein, one end of the tube was clamped and the end fixed by suture was inserted into the right common carotid artery. After this operation, bleeding was performed immediately and then stopped 15 minutes later, the suture was taken out quickly and weighed. The wet weight of thrombus was calculated by subtracting the suture weight from the total weight. The thrombosis inhibition rate was calculated according to the following formula. Inhibition rate (%)=[(Thrombus weight of the control group)−(Thrombus weight of the group administered with drug)]/(Thrombus weight of the control group)×100% Results: […]

cancer cells = conditions: cited from earlier work
platelets = conditions: cited from earlier work
thrombin = thrombin (Homo sapiens, UniProt P00734); conditions: cited from earlier work
[6] = oral administration, human body; cited from earlier work

Which results are given for COc1ccc([C@@H]2Sc3ccccc3N(CCN(C)C)C(=O)[C@@H]2OC(C)=O)cc1 [Diltiazem]?
coronary blood flow ([1]; 30 min after drug): 110.36 ± 58.20 ml/100 g · min^−1; coronary blood flow change rate ([1]; 30 min after drug): 108.70 ± 3.32 %; coronary blood flow ([1]; 60 min after drug): 119.11 ± 61.62 ml/100 g · min^−1; coronary blood flow change rate ([1]; 60 min after drug): 117.06 ± 5.17 %; coronary blood flow ([1]; 90 min after drug): 122.97 ± 64.44 ml/100 g · min^−1; coronary blood flow change rate ([1]; 90 min after drug): 120.06 ± 7.27 %; coronary blood flow ([1]; 120 min after drug): 119.15 ± 65.51 ml/100 g · min^−1; coronary blood flow change rate ([1]; 120 min after drug): 116.97 ± 7.33 %; coronary blood flow ([1]; 180 min after drug): 112.10 ± 60.59 ml/100 g · min^−1; coronary blood flow change rate ([1]; 180 min after drug): 112.21 ± 6.46 %; coronary blood flow ([1]; after ischemia before drug): 101.82 ± 54.71 ml/100 g · min^−1; coronary blood flow change rate ([1]; after ischemia before drug): 110.34 ± 4.17%; coronary blood flow ([1]; before ischemia (normal value)): 92.07 ± 46.98 ml/100 g · min^−1; N-ST change rate ([2]; 15 min after drug): 89.60 ± 8.40 %; acute myocardial ischemia (N-ST) ([2]; 15 min after drug): 24.83 ± 2.04; degree of acute myocardial ischemia (Σ-ST) ([2]; 15 min after drug): 182.00 ± 70.40 mv; Σ-ST change rate ([2]; 15 min after drug): 61.01 ± 20.89 %; N-ST change rate ([2]; 30 min after drug): 89.53 ± 15.49%; acute myocardial ischemia (N-ST) ([2]; 30 min after drug): 25.33 ± 4.08; degree of acute myocardial ischemia (Σ-ST) ([2]; 30 min after drug): 149.83 ± 41.36 mv; Σ-ST change rate ([2]; 30 min after drug): 48.75 ± 9.99 %; N-ST change rate ([2]; 45 min after drug): 86.82 ± 14.83%; acute myocardial ischemia (N-ST) ([2]; 45 min after drug): 23.17 ± 5.91; degree of acute myocardial ischemia (Σ-ST) ([2]; 45 min after drug): 126.00 ± 47.35 mv; Σ-ST change rate ([2]; 45 min after drug): 42.43 ± 8.97 %; N-ST change rate ([2]; 60 min after drug): 87.48 ± 15.08%; acute myocardial ischemia (N-ST) ([2]; 60 min after drug): 23.50 ± 4.85; degree of acute myocardial ischemia (Σ-ST) ([2]; 60 min after drug): 148.67 ± 71.87 mv; Σ-ST change rate ([2]; 60 min after drug): 47.78 ± 10.82 %; N-ST change rate ([2]; 90 min after drug): 81.41 ± 14.31 %; acute myocardial ischemia (N-ST) ([2]; 90 min after drug): 21.50 ± 5.86; degree of acute myocardial ischemia (Σ-ST) ([2]; 90 min after drug): 140.17 ± 63.46 mv; Σ-ST change rate ([2]; 90 min after drug): 54.98 ± 18.57 %; N-ST change rate ([2]; 120 min after drug): 77.22 ± 16.49 %; acute myocardial ischemia (N-ST) ([2]; 120 min after drug): 20.00 ± 6.00; degree of acute myocardial ischemia (Σ-ST) ([2]; 120 min after drug): 139.00 ± 69.20 mv; Σ-ST change rate ([2]; 120 min after drug): 52.21 ± 19.91 %; N-ST change rate ([2]; 180 min after drug): 75.89 ± 19.59 %; acute myocardial ischemia (N-ST) ([2]; 180 min after drug): 20.67 ± 5.99; degree of acute myocardial ischemia (Σ-ST) ([2]; 180 min after drug): 117.17 ± 54.27 mv; Σ-ST change rate ([2]; 180 min after drug): 45.99 ± 18.90 %; acute myocardial ischemia (N-ST) ([2]; before drug): 28.67; degree of acute myocardial ischemia (Σ-ST) ([2]; before drug): 291.00 ± 40.39 mv; Duration of arrhythmia [3]: 13.2 ± 6.0 min; Incidence rate of VF [3]: 0* %; Onset time of VP [3]: 15.0 ± 10.8 s; Onset time of VT [3]: 20 ± 8.8 s; Heart rate ([3]; 5 min after BaCl2): 327 ± 64 beat/min; Heart rate ([3]; 10 min after BaCl2): 360 ± 88 beat/min; Heart rate ([3]; 20 min after BaCl2): 381 ± 71 beat/min; Heart rate ([3]; 30 min after BaCl2): 399 ± 42 beat/min; Heart rate ([3]; before BaCl2): 397 ± 53 beat/min; Infarction zone area [4]: 266.25 ± 63.4*** mm^2; Infraction zone/cardiac ventricle [4]: 5.36 ± 1.70; Infraction zone/heart [4]: 2.27 ± 0.83; Wet weight of thrombus ([5]; 50 mg/kg intragastric, 7 days): 0.0200 ± 0.005 g; inhibition at 50 mg/kg ([5]; po, 168 h, 50 mg/kg intragastric, 7 days, read-out: Inhibition rate): 32.9%; inhibition at 50 mg/kg ([5]; 50 mg/kg, read-out: inhibition rate of thrombosis): 33%

What does the source list for CC(C)=CCC[C@](C)(O)[C@H]1CC[C@]2(C)[C@@H]1[C@H](O)C[C@@H]1[C@@]3(C)CC[C@H](O[C@@H]4O[C@H](CO)[C@@H](O)[C@H](O)[C@H]4O[C@@H]4O[C@H](CO)[C@@H](O)[C@H](O)[C@H]4O)C(C)(C)[C@@H]3CC[C@]12C [Ginsenoside Rg3]?
anticancer activity (cancer cells): significant anticancer activity; platelet aggregation induced by collagen or ADP (platelets): relatively strong inhibitory effects

What does the source list for CC(C)=CCC[C@](C)(O)[C@H]1CC[C@]2(C)[C@@H]1[C@H](O)C[C@@H]1[C@@]3(C)CC[C@H](O)C(C)(C)[C@@H]3[C@@H](O[C@@H]3O[C@H](CO)[C@@H](O)[C@H](O)[C@H]3O)C[C@]12C [Ginsenoside Rh1]?
anticancer activity (cancer cells): significant anticancer activity; conversion of fibrinogen to fibrin induced by thrombin (thrombin): significant inhibitory effects

Which anticancer activity (cancer cells) does the source give for CC(C)=CCC[C@](C)(O)[C@H]1CC[C@]2(C)[C@@H]1[C@H](O)C[C@@H]1[C@@]3(C)CC[C@H](O[C@@H]4O[C@H](CO)[C@@H](O)[C@H](O)[C@H]4O)C(C)(C)[C@@H]3CC[C@]12C [Rh2, ginsenoside Rh2] here?
Its anticancer activity is “significant anticancer activity”.

For CC(C)=CCC[C@](C)(O[C@@H]1O[C@H](CO[C@@H]2O[C@H](CO)[C@@H](O)[C@H](O)[C@H]2O)[C@@H](O)[C@H](O)[C@H]1O)[C@H]1CC[C@]2(C)[C@@H]1[C@H](O)C[C@@H]1[C@@]3(C)CC[C@H](O[C@@H]4O[C@H](CO)[C@@H](O)[C@H](O)[C@H]4O[C@@H]4O[C@H](CO)[C@@H](O)[C@H](O)[C@H]4O)C(C)(C)[C@@H]3CC[C@]12C [ginsenoside-Rb1], which absorption rate [6] is on record?
The absorption rate was 1%.
